These compounds were tested against T1, B2 bradykinin receptor (Homo sapiens, UniProt P30411) (assay: Compound was assayed for binding against the human Bradykinin receptor B2 expressed in CHO cells; 0.2-16). Conditions: not given; call rule not given here.
T1 sequence (P30411 whole entry): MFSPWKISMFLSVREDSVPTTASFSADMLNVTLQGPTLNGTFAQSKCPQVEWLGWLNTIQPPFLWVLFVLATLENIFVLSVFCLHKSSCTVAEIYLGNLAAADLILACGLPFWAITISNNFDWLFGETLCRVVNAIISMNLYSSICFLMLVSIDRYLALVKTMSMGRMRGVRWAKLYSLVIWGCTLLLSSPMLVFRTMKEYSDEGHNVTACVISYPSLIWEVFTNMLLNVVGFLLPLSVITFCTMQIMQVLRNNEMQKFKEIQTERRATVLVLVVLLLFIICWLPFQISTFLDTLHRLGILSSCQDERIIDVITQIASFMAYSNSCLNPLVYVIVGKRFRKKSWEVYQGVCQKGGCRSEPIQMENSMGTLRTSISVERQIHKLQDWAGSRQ
Format: cell-based
`N=C(N)NCCC[C@@H]1NC(=O)N2C3CCCCC3C[C@H]2C(=O)N2Cc3ccccc3C[C@@H]2C(=O)NCC[C@@H](NC(=O)CCc2ccccc2)C(=O)CCNC1=O` (stereo partly specified) showed a Kd of 0.2 µM.

Same assay, conditions: cho
For `NCCCC[C@@H]1NC(=O)[C@H](c2ccccc2)NC(=O)[C@H](CNC(=O)Cc2ccccc2)NC(=O)[C@H]2Cc3ccccc3CN2C(=O)[C@@H]2CC3CCCCC3N2C(=O)[C@H](CN)NC1=O` (stereo partly specified), the Kd was 0.2 µM.

What follows are compounds tested against T1, B2 bradykinin receptor (assay: Compound was assayed for binding against the human Bradykinin receptor B2 expressed in CHO cells; NA means Inactive). Conditions: not given.
Format: cell-based
For `NCCCC[C@H](C(=O)NCc1ccc(CN)cc1)n1cccc1C(=O)NCCc1ccccc1`, the Kd was “Not Active”.
With `NC[C@H]1C[C@@H](OCc2ccccc2)CN1C(=O)c1ccccc1` the Kd was “Not Active”.
`N=C(N)NC[C@H]1C[C@@H](OCc2ccccc2)CN1C(=O)c1ccccc1` was tested, and the Kd was “Not Active”.

The compounds below were run against T1, B2 bradykinin receptor (assay: Compound was assayed for binding against the human Bradykinin receptor B2 expressed in CHO cells). Conditions: not given.
Format: cell-based
With `CCCCc1ccnc([C@H](CC2CCCCC2)NC(=O)c2ccc(CNC(=N)N)cc2)c1` the Kd was 5 µM.
`CCCCC1(CCCC)Oc2cccc(NC(=O)c3ccc(CN)cc3)c2O1` showed a Kd of 13 µM.
In the case of `CCCCC1(CCCC)Oc2cccc(N(CCCN)C(=O)c3ccc(CN)cc3)c2O1`, the Kd is reported as 14 µM.
Compound `NC[C@H]1C[C@@H](OCc2ccccc2)CN1C(=O)c1ccc2ccccc2c1` has a Kd of 66 µM.
`NCc1ccc(CNC(=O)[C@@H](CN)n2cccc2CNC(=O)CC2CCCCC2)cc1` showed a Kd of 101 µM.
Work on `N=C(N)NCC1N=C(c2ccccc2)c2cc(N(Cc3ccccc3)Cc3ccccc3)ccc2N(CCCN=C(N)N)C1=O` (stereo unspecified) yielded a Kd of 12 µM.
Work on `NCCCN1C(=O)C(CCN)N=C(c2ccccc2)c2cc(N(Cc3ccccc3)Cc3ccccc3)ccc21` (stereo unspecified) yielded a Kd of 15 µM.
Compound `NC(N)=NC[C@H]1C[C@@H](OCc2ccccc2)CN1C(=O)c1ccc2ccccc2c1` has a Kd of 15 µM.
Compound `CCCCc1ccnc([C@H](CC2CCCCC2)NC(=O)CCCCN(CCCC)CCCC)c1` has a Kd of 23 µM.
For `CCCCc1ccnc([C@H](CC2CCCCC2)NC(=O)CCCCN)c1`, the Kd was 62 µM.
`NCc1ccc(CNC(=O)[C@@H](CN)n2cccc2CNC(=O)C(c2ccccc2)C2CCCCC2)cc1` (stereo partly specified) gave a Kd of 17 µM.
Compound `CCCCc1ccnc([C@H](CC2CCCCC2)NC(=O)c2ccc(CN)cc2)c1` has a Kd of 7.4 µM.
`NCCCC[C@H](C(=O)NCc1ccc(CN)cc1)n1cccc1C(=O)NC(Cc1ccccc1)c1ccccc1` (stereo partly specified) gave a Kd of 28 µM.
In the case of `N=C(N)NCCC1N=C(c2ccccc2)c2cc(N(Cc3ccccc3)Cc3ccccc3)ccc2N(CCCN=C(N)N)C1=O` (stereo unspecified), the Kd is reported as 4.5 µM.
With `NCCCN1C(=O)C(CN)N=C(c2ccccc2)c2cc(N(Cc3ccccc3)Cc3ccccc3)ccc21` (stereo unspecified) the Kd was 4.3 µM.
`NCc1cccc(Cn2ccc3c2C(=O)C(Cc2ccccc2)(Cc2ccccc2)CC3)c1` was tested, and the Kd was 7.6 µM.

— ChEMBL document CHEMBL1132794, “Structure-based design of six novel classes of nonpeptide antagonists of the bradykinin B2 receptor” (Bioorg Med Chem Lett, 2000)
